A short description of the test: Jurkat reporter gene cellular assay. As to conditions: Homo sapiens; Jurkat/NF-κB-luc/PD1 + Raji-PD-L1 coculture, OKT3 1 μg/mL, 6 hrs, activation fold; read-out: Cell Activity EC50. Type of test: cell-based. As to the method:
The effect of compounds of the examples of the present invention and positive compounds on the interaction between PD-1 and PD-L1 expressed on cell surfaces, and the related influence on T cell functions, were determined by a Jurkat reporter gene cellular assay.
Briefly, the reporter gene plasmid of NF-κB-luc and the plasmid of human PD-1 were transfected into Jurkat cells to establish a stably transfected cell line capable of stably expressing both PD-1 and NF-κB-Luc reporter genes; the expression level of PD-1 on the cell surface was confirmed by flow cytometry; and the expression of the reporter gene was confirmed via the response of the reporter gene stimulated by OKT-3 and Raiji cells.
In addition, the plasmid of human PD-L1 was transfected into Raji cells to obtain a cell line capable of stably expressing PD-L1. Jurkat/NF-κB-luc/PD1 cells and Raji-PD-L1 cells were then cocultured and stimulated with OKT-3. On this basis, the compounds were added, and the enhancement of the signal pathway of T cell activation by the inhibitory effect of the compounds on the interaction between PD-1 and PD-L1 was evaluated by readings of reporter gene responses. The specific experimental process was as follows: • 1. 30 μL of compound or antibody solution was added to each well of a white 96-well plate (corning, 3610) at different diluted concentrations, and 10 μL of OKT3 (Biolegend, 317326) was then added (the final concentration of OKT3: 1 μg/mL); • 2. 20 μL of Raji-PD-L1 cell suspension was added to each well with 5*10^4 cells for each well, and was incubated in an incubator for 20 min; • 3. 20 μL of Jurkat/NF-Kb-luc/PD-1 cell suspension was added to each well with 5*10^4 cells for each well, and well mixed, and 6 hrs later, Bright-glo (Promega, E2620) was applied and plates were read on Envision; • 4. The reading of each well treated with the compound was compared with the reading of each well treated with DMSO to obtain the activation fold of the compound; • 5. EC50 values of compounds and positive compounds of the examples of the present invention were determined by non-linear regression analysis of activation folds at different compound concentrations.
For orientation: In a reporter assay the amount or activity of a reporter protein is the signal.

On to `COc1cc(/C(F)=C/c2cccc(-c3cccc(NC(=O)c4nc5c(n4C)CCN(CCC46CCC(C(=O)O)(CC4)C6)C5)c3Cl)c2Cl)ncc1CN1CCC[C@H]1C(C)(C)O` [Example 52, (S,Z)-4-(2-(2-((2,2′-dichloro-3′-(2-fluoro-2-(5-((2-(2-hydroxypropan-2-yl)pyrrolidin-1-yl)methyl)-4-methoxypyridin-2-yl)vinyl)-[1,1′-biphenyl]-3-yl)carbamoyl)-1-methyl-1,4,6,7-tetrahydro-5H-imidazo [4,5-c]pyridin-5-yl)ethyl)bicyclo[2.2.1]heptane-1-carboxylic acid], for which the EC50 came out at 116 nM.
The value for `COc1cc(/C(F)=C/c2cccc(-c3cccc(NC(=O)c4nc5c(n4C)CCN(CCC46CCC(C(=O)O)(CC4)C6)C5)c3Cl)c2Cl)ncc1CNC12CC3CC(CC(C3)C1)C2` [Example 53, (Z)-4-(2-(2-((3′-(2-(5-((adamantan-1-ylamino)methyl)-4-methoxypyridin-2-yl)-2-fluorovinyl)-2,2′-dichloro-[1,1′-biphenyl]-3-yl)carbamoyl)-1-methyl-1,4,6,7-tetrahydro-5H-imidazo[4,5-c]pyridin-5-yl)ethyl)bicyclo[2.2.1]heptane-1-carboxylic acid] was 1040 nM; that for `COc1cc(/C(F)=C/c2cccc(-c3cccc(NC(=O)c4nc5c(n4C)CCN(CCC46CCC(C(=O)O)(CC4)C6)C5)c3Cl)c2Cl)ncc1CN(C)CCN(C)C` [Example 54, (Z)-4-(2-(2-((2,2′-dichloro-3′-(2-(5-(((2-(dimethylamino)ethyl)(methyl)amino)methyl)-4-methoxypyridin-2-yl)-2-fluorovinyl)-[1,1′-biphenyl]-3-yl)carbamoyl)-1-methyl-1,4,6,7-tetrahydro-5H-imidazo [4,5-c]pyridin-5-yl)ethyl)bicyclo[2.2.1]heptane-1-carboxylic acid] was 250 nM; that for `COc1cc(/C(F)=C/c2cccc(-c3cccc(NC(=O)c4nc5c(n4C)CCN(CCC46CCC(C(=O)O)(CC4)C6)C5)c3Cl)c2Cl)ncc1CN1CCC2(CCC2)C1` [Example 55, (Z)-4-(2-(2-((3′-(2-(5-((6-azaspiro[3.4]octan-6-yl)methyl)-4-methoxypyridin-2-yl)-2-fluorovinyl)-2,2′-dichloro-[1,1′-biphenyl]-3-yl)carbamoyl)-1-methyl-1,4,6,7-tetrahydro-5H-imidazo[4,5-c]pyridin-5-yl)ethyl)bicyclo[2.2.1]heptane-1-carboxylic acid] was 149 nM.
The figure for `COc1cc(/C(F)=C/c2cccc(-c3cccc(NC(=O)c4nc5c(n4C)CCN(CCC46CCC(C(=O)O)(CC4)C6)C5)c3Cl)c2Cl)ncc1CN1CC[C@@H](C)C1` [Example 56, (R,Z)-4-(2-(2-((2,2′-dichloro-3′-(2-fluoro-2-(4-methoxy-5-((3-methylpyrrolidin-1-yl)methyl)pyridin-2-yl)vinyl)-[1,1′-biphenyl]-3-yl)carbamoyl)-1-methyl-1,4,6,7-tetrahydro-5H-imidazo[4,5-c]pyridin-5-yl)ethyl)bicyclo[2.2.1]heptane-1-carboxylic acid] is 61.4 nM; for `COc1cc(/C(F)=C/c2cccc(-c3cccc(NC(=O)c4nc5c(n4C)CCN(CCC46CCC(C(=O)O)(CC4)C6)C5)c3Cl)c2Cl)ncc1CN1C[C@@H](O)[C@H](F)C1` [Example 57, 4-(2-(2-((2,2′-dichloro-3′-((Z)-2-fluoro-2-(5-(((3R,4R)-3-fluoro-4-hydroxypyrrolidin-1-yl)methyl)-4-methoxypyridin-2-yl)vinyl)-[1,1-biphenyl]-3-yl)carbamoyl)-1-methyl-1,4,6,7-tetrahydro-5H-imidazo [4,5-c]pyridin-5-yl)ethyl)bicyclo[2.2.1]heptane-1-carboxylic acid] it is 72 nM; for `COc1cc(/C(F)=C/c2cccc(-c3cccc(NC(=O)c4nc5c(n4C)CCN(CCC46CCC(C(=O)O)(CC4)C6)C5)c3Cl)c2Cl)ncc1CN1CC[C@@H](F)C1` [Example 60, (R,Z)-4-(2-(2-((2,2′-dichloro-3′-(2-fluoro-2-(5-((3-fluoropyrrolidin-1-yl)methyl)-4-methoxypyridin-2-yl)vinyl)-[1,1′-biphenyl]-3-yl)carbamoyl)-1-methyl-1,4,6,7-tetrahydro-5H-imidazo[4,5-c]pyridin-5-yl)ethyl)bicyclo[2.2.1]heptane-1-carboxylic acid] it is 134 nM.
The value for `COc1cc(/C(F)=C/c2cccc(-c3cccc(NC(=O)c4nc5c(n4C)CCN(CCC46CCC(C(=O)O)(CC4)C6)C5)c3Cl)c2Cl)ncc1CN1CCC(O)(C(F)(F)F)C1` (centres unmarked) [Example 61, (Z)-4-(2-(2-((2,2′-dichloro-3′-(2-fluoro-2-(5-((3-hydroxy-3-(trifluoromethyl)pyrrolidin-1-yl)methyl)-4-methoxypyridin-2-yl)vinyl)-[1,1′-biphenyl]-3-yl)carbamoyl)-1-methyl-1,4,6,7-tetrahydro-5H-imidazo [4,5-c]pyridin-5-yl)ethyl)bicyclo[2.2.1]heptane-1-carboxylic acid] was 522 nM; that for `COc1cc(/C(F)=C/c2cccc(-c3cccc(NC(=O)c4nc5c(n4C)CCN(CCC46CCC(C(=O)O)(CC4)C6)C5)c3Cl)c2Cl)ncc1CN1CCC2(CC(O)C2)C1` (centres unmarked) [Example 62, (Z)-4-(2-(2-((2,2′-dichloro-3′-(2-fluoro-2-(5-((2-hydroxy-6-azaspiro [3.4]octan-6-yl)methyl)-4-methoxypyridin-2-yl)vinyl)-[1,1′-biphenyl]-3-yl)carbamoyl)-1-methyl-1,4,6,7-tetrahydro-5H-imidazo[4,5-c]pyridin-5-yl)ethyl)bicyclo[2.2.1]heptane-1-carboxylic acid] was 117 nM.
`COc1cc(/C(F)=C/c2cccc(-c3cccc(NC(=O)c4nc5c(n4C)CCN(CCC46CCC(C(=O)O)(CC4)C6)C5)c3Cl)c2Cl)ncc1CN(C)C(C)C` [Example 63, (Z)-4-(2-(2-((2,2′-dichloro-3′-(2-fluoro-2-(5-((isopropyl(methyl)amino)methyl)-4-methoxypyridin-2-yl)vinyl)-[1,1′-biphenyl]-3-yl)carbamoyl)-1-methyl-1,4,6,7-tetrahydro-5H-imidazo[4,5-c]pyridin-5-yl)ethyl)bicyclo[2.2.1]heptane-1-carboxylic acid]: the EC50 was 159 nM.
The figure for `COc1cc(/C(F)=C/c2cccc(-c3cccc(NC(=O)c4nc5c(n4C)CCN(CCC46CCC(C(=O)O)(CC4)C6)C5)c3Cl)c2Cl)ncc1CN1CCC(C)(C)C1` [Example 64, (Z)-4-(2-(2-((2,2′-dichloro-3′-(2-(5-((3,3-dimethylpyrrolidin-1-yl)methyl)-4-methoxypyridin-2-yl)-2-fluorovinyl)-[1,1′-biphenyl]-3-yl)carbamoyl)-1-methyl-1,4,6,7-tetrahydro-5H-imidazo[4,5-c]pyridin-5-yl)ethyl)bicyclo[2.2.1]heptane-1-carboxylic acid] is 113 nM.
Consider `COc1cc(/C(F)=C/c2cccc(-c3cccc(NC(=O)c4nc5c(n4C)CCN(CCC46CCC(C(=O)O)(CC4)C6)C5)c3Cl)c2Cl)ncc1CN1CCCCC1` [Example 65, (Z)-4-(2-(2-((2,2′-dichloro-3′-(2-fluoro-2-(4-methoxy-5-(piperidin-1-ylmethyl)pyridin-2-yl)vinyl)-[1,1′-biphenyl]-3-yl)carbamoyl)-1-methyl-1,4,6,7-tetrahydro-5H-imidazo[4,5-c]pyridin-5-yl)ethyl) bicyclo[2.2.1]heptane-1-carboxylic acid], for which the EC50 came to 137 nM.
Consider `COc1cc(/C(F)=C/c2cccc(-c3cccc(NC(=O)c4nc5c(n4C)CCN(CCC46CCC(C(=O)O)(CC4)C6)C5)c3Cl)c2Cl)ncc1CN1CC[C@@H](N(C)C)C1` [Example 66, (R,Z)-4-(2-(2-((2,2′-dichloro-3′-(2-(5-((3-(dimethylamino)pyrrolidin-1-yl)methyl)-4-methoxypyridin-2-yl)-2-fluorovinyl)-[1,1′-biphenyl]-3-yl)carbamoyl)-1-methyl-1,4,6,7-tetrahydro-5H-imidazo[4,5-c]pyridin-5-yl)ethyl)bicyclo[2.2.1]heptane-1-carboxylic acid], for which the 50% effective concentration (EC50) worked out at 347 nM.
Take `COc1cc(/C(F)=C/c2cccc(-c3cccc(NC(=O)c4nc5c(n4C)CCN(CCC46CCC(C(=O)O)(CC4)C6)C5)c3Cl)c2Cl)ncc1CN1CCCC1(C)C` [Example 67, (Z)-4-(2-(2-((2,2′-dichloro-3′-(2-(5-((2,2-dimethylpyrrolidin-1-yl)methyl)-4-methoxypyridin-2-yl)-2-fluorovinyl)-[1,1′-biphenyl]-3-yl)carbamoyl)-1-methyl-1,4,6,7-tetrahydro-5H-imidazo[4,5-c]pyridin-5-yl)ethyl)bicyclo[2.2.1]heptane-1-carboxylic acid]: the EC50 stood at 54.1 nM.

As a reminder, the EC50 is the concentration giving half of the maximal effect.

Source of the values: patent US12473282B2, “Biphenyl fluorine double bond derivative, preparation method therefor, and pharmaceutical application thereof” (Abbisko Therapeutics Co., Ltd., priority 2020, dated 2025).
